US10877036B2, “Biosensor based on Gβγ-interacting proteins to monitor G-protein activation” (priority 2014, dated 2020)
Numbering of substitutions follows the chain as printed. Starred links: 1 amine or outer side, 2 acyl side, 3 side chain; linkers in the order of their positions; H or OH if unused. Positions of bridges follow the written chain, without caps; N, C: chain ends. Non-standard residues stand in square brackets, D forms with d. Residues, ends and D or L forms follow the SMILES beside them. *: point of attachment. Leu(3R-OH,Nα-propionyl) = CCC(=O)N[C@H](C(=O)*)[C@H](O)C(C)C; X1 = CC(C)[C@@H](O[*:3])[C@H](N[*:1])C(=O)[*:2]; NMeT = CN[C@H](C(=O)O)[C@@H](C)O; dPhLac = O=C(O)[C@H](O)Cc1ccccc1; NMeA = CN[C@@H](C)C(=O)O; NMeDha = C=C(NC)C(=O)O

Experiments:
[1] = molecular target: T1, GαqF75G (Homo sapiens, UniProt P50148, F75G); experiment: Ubo-Qic sensitivity of the activation of mutant Gαq (BRET biosensor); format: cell-based; conditions: Gαq Phe75 to glycine; FIG. 5D
T1 construct: expressed in transfected cells; host or cells: HEK293
T1 sequence (P50148 1-359 F75G): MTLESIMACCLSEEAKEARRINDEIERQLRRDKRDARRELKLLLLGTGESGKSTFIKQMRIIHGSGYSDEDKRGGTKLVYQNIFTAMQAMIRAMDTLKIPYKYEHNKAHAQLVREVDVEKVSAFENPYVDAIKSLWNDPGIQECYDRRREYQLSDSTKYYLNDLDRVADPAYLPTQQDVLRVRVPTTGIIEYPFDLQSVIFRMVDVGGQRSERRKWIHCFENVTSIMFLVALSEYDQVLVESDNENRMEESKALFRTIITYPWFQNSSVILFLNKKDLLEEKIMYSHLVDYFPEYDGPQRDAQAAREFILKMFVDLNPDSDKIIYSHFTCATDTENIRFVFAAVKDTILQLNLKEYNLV
Source text: (§1) Expression vectors: Receptors and G-proteins. The plasmid encoding AT1 R was a generous gift from Stéphane Laporte (McGill University, Montréal, Canada). Gαq, Gα11, Gα12, Gα13, Gα14, Gα15/16, GαoA, GαoB, Gαz, Gαs, Gαi1, Gαi2, Gαi3, Gβ1, TPαR, D2R and α1BAR were obtained from the cDNA Resource Center (cDNA.org). Plasmids encoding mutant Gα proteins including GαqG66K, GαqY67C and GαqF75G, were obtained by site-directed mutagenesis (PCR overlap) of the Gαq wild-type protein coding sequence using the primers depicted in Table I. The PCR fragments were digested with Acc65I+XhoI restriction enzymes and cloned in pCDNA3.1 Zeo(+) (from Invitrogen®, Carlsbad, Calif.) digested Acc65I+XhoI. […]
(§2) BRET assays in living cells. […] BRET values were then collected using a Mithras™ LB940 Multimode Microplate Reader or a TRISTAR® LB942 Multimode Microplate Reader, equipped with the following filters: 400 nm±70 nm (energy donor) and 515 nm±20 nm (energy acceptor). BRET values were determined by calculating the ratio of the light emitted by GFP (515 nm) over the light emitted by the Rluc (400 nm). To determine the % of activation (Stim as % of basal), BRET values obtained for the agonist treated cells where expressed as a percentage of the BRET values obtained with the corresponding cells treated with vehicle. […]

[2] = molecular target: T2, Gαi1 (Homo sapiens, UniProt P63096); experiment: G-protein inhibitor pre-treatment, D2R/Gαi1 BRET biosensor response; format: cell-based; conditions: D2R/Gαi1, agonist rotigotine; 100 nM Ubo-Qic for 20 minutes or 100 ng/ml pertussis toxin overnight; FIG. 5B
T2 construct: host or cells: HEK293
T2 sequence (P63096 whole entry): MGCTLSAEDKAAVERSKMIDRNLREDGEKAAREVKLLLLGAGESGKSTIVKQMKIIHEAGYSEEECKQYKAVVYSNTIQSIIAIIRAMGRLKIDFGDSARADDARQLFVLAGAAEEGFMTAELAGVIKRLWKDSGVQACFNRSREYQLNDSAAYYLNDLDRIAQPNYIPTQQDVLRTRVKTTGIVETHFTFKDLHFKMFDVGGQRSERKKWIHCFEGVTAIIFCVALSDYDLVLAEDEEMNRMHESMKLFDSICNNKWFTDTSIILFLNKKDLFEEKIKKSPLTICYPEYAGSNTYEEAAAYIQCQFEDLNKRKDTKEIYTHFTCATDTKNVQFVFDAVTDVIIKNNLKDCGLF
Procedure: (§3) BRET assays in living cells. Cells seeded in 96-well plates were washed twice with Phosphate Buffered Saline (PBS), followed by Tyrode buffer addition (composition: 137 mM NaCl, 0.9 mM KCl, 1 mM MgCl2, 11.9 mM NaHCO3, 3.6 mM NaH2PO4, 25 mM HEPES, 5.5 mM Glucose and 1 mM CaCl2, pH 7.4). The cells were then treated with the different ligands or vehicle for the indicated times. The Rluc substrate, coelenterazine 400a, was added at a final concentration of 2.5 μM and cells were further incubated for an additional 5 minutes. BRET values were then collected using a Mithras™ LB940 Multimode Microplate Reader or a TRISTAR® LB942 Multimode Microplate Reader, equipped with the following filters: 400 nm±70 nm (energy donor) and 515 nm±20 nm (energy acceptor). BRET values were determined by calculating the ratio of the light emitted by GFP (515 nm) over the light emitted by the Rluc (400 nm). To determine the % of activation (Stim as % of basal), BRET values obtained for the agonist treated cells where expressed as a percentage of the BRET values obtained with the corresponding cells treated with vehicle.
(§4) G-protein inhibitors. BRET assays were performed as described previously, except that cells were pre-treated overnight at 37° C. with 100 ng/ml of pertussis toxin, or, for 20 minutes at 37° C. with 100 nM of Ubo-Qic.

[3] = test system: Gαq substituted at position 67 (Y67C, Y67G, Y67S & Y67L); experiment: Ubo-Qic sensitivity of the activation of mutant Gαq (BRET biosensor); format: cell-based, human; conditions: FIG. 5D
Source text: as §1, §2

[4] = molecular target: T3, Gαq (Homo sapiens, UniProt P50148); experiment: G-protein inhibitor pre-treatment, TPαR/Gαq BRET biosensor response; format: cell-based; conditions: agonist U-46619, 100 nM Ubo-Qic for 20 minutes or 100 ng/ml pertussis toxin overnight, FIG. 5A
T3 construct: host or cells: HEK293
T3 sequence (P50148 1-359): T1 sequence (P50148 1-359 F75G) with G75F
Procedure: as §3, §4

[5] = molecular target: T4, Gα13 (Homo sapiens, UniProt Q14344); experiment: Ubo-Qic selectivity, TPαR-mediated G-protein activation (BRET biosensor); format: cell-based; conditions: U-46619 100 nM, FIG. 5C
T4 construct: host or cells: HEK293
T4 sequence (Q14344 1-377): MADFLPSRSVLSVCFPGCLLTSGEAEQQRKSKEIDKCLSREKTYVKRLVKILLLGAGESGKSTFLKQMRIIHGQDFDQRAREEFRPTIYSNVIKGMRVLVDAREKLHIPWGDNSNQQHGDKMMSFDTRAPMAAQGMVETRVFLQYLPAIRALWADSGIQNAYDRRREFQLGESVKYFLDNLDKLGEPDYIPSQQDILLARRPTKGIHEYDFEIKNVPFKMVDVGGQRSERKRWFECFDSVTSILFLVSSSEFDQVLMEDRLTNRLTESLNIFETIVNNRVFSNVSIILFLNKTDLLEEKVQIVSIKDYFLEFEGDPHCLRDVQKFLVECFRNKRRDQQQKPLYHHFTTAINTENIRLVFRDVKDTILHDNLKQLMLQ
Procedure: as §3, §4

[6] = molecular target: T5, Gα15/16 (Homo sapiens, UniProt P30679); experiment: as above; format: cell-based; conditions: U-46619 100 nM, FIG. 5C
T5 construct: host or cells: HEK293
T5 sequence (P30679 1-374): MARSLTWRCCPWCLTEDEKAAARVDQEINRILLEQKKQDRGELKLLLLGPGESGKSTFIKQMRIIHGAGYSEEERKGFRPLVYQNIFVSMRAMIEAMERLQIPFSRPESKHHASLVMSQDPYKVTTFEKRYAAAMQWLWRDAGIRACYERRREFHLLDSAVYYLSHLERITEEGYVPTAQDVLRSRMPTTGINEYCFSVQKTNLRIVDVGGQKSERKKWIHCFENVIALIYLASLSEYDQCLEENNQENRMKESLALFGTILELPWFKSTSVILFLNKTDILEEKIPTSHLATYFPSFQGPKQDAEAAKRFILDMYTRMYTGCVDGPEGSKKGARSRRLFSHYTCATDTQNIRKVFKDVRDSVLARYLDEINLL
Procedure: as §3, §4

[7] = molecular target: T6, Gα12 (Homo sapiens, UniProt Q03113); experiment: as above; format: cell-based; conditions: U-46619 100 nM, FIG. 5C
T6 construct: host or cells: HEK293
T6 sequence (Q03113 1-381): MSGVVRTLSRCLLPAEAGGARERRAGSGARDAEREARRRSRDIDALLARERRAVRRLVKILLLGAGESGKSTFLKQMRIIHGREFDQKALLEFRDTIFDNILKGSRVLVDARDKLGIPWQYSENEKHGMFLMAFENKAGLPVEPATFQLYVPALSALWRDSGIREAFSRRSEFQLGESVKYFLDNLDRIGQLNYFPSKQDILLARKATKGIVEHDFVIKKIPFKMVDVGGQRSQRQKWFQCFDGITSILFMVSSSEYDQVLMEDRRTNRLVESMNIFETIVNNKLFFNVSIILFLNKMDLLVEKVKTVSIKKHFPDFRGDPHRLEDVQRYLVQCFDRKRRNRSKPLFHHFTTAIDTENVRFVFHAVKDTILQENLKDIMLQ
Procedure: as §3, §4

[8] = molecular target: T7, angiotensin II type 1 receptor (AT1R) (Homo sapiens, UniProt P30556); experiment: Ligand profiling with the βγIP-based BRET biosensor, AT1R with Gαq or Gα12; format: cell-based; conditions: Gα12 versus Gαq, FIG. 8C
T7 construct: host or cells: HEK293
T7 sequence (P30556 1-359): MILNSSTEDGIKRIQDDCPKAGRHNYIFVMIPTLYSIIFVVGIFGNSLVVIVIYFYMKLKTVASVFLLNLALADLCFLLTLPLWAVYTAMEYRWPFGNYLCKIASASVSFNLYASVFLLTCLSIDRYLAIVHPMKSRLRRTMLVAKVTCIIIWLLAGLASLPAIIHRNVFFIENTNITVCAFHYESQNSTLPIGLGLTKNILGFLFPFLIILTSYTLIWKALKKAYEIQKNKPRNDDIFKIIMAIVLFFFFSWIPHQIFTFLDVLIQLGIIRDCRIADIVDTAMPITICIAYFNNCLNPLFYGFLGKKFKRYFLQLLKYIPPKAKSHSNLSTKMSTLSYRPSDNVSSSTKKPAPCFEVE
Procedure: Cell culture and transfections. Human embryonic kidney 293 (HEK293) cells were maintained in Dulbecco's Modified Eagle's Medium (DMEM) supplemented with 10% fetal bovine serum, 100 unit/ml penicillin/streptomycin at 37° C. in a humidified atmosphere with 5% CO2. Two days before the experiments, HEK293 cells were transfected with the indicated plasmids using poly-ethylenimine 25-kDa linear (PEI) as a transfecting agent (at a ratio of 3 to 1, PEI/DNA) (Hamdan, Rochdi et al. 2007), and then directly seeded in 96-well plates pre-treated with poly-L-ornithine hydrobromide or Poly-D-Lysine, at a density of 35,000 cells per well (for BRET and PCA assays in living cells), or 6-well plates at a density of 1,000,000 cells per well (for BRET assays on membrane preparations).
BRET assays in living cells. […] BRET values were then collected using a Mithras™ LB940 Multimode Microplate Reader or a TRISTAR® LB942 Multimode Microplate Reader, equipped with the following filters: 400 nm±70 nm (energy donor) and 515 nm±20 nm (energy acceptor). BRET values were determined by calculating the ratio of the light emitted by GFP (515 nm) over the light emitted by the Rluc (400 nm). To determine the % of activation (Stim as % of basal), BRET values obtained for the agonist treated cells where expressed as a percentage of the BRET values obtained with the corresponding cells treated with vehicle.

Row | Compound | inhibition of mutant Gαq activation [1] | effect of pre-treatment on the biosensor BRET response after agonist incubation [2] | sensitivity of mutant Gαq activation to the inhibitor [3] | effect of pre-treatment on the BRET response following agonist stimulation [4] | sensitivity of G-protein activation to the inhibitor [5] | sensitivity of G-protein activation to the inhibitor [6] | sensitivity of G-protein activation to the inhibitor [7] | efficacy of G-protein activation relative to angiotensin II response [8]
1 | C=C1C(=O)N[C@@H](C)C(=O)N(C)[C@@H](C)C(=O)N[C@@H]([C@H](OC(=O)[C@@H](NC(=O)CC)[C@H](O)C(C)C)C(C)C)C(=O)N(C)[C@@H]([C@@H](C)OC)C(=O)O[C@H](C(C)C)[C@H](NC(C)=O)C(=O)O[C@H](Cc2ccccc2)C(=O)N1C [Ubo-Qic, L-threonine,(3R)-N-acetyl-3-hydroxy-L-leucyl-(aR)-a-hydroxybenzenepropanoyl-2,3-idehydro-N-methylalanyl-L-alanyl-N-methyl-L-alanyl-(3R)-3-[[(2S,3R)-3-hydroxy-4-methyl-1-oxo-2-[(1-oxopropyl)amino]pentyl]oxy]-L-leucyl-N,O-dimethyl-,(7→1)-lactone (9CI)] (Ac-[X1][dPhLac][NMeDha]A[NMeA][X1](Leu(3R-OH,Nα-propionyl))[NMeT](Me); ester 1-C) | partial | no detectable effect | resistance | completely abolished | insensitive | insensitive | insensitive | –
2 | [Asp^1, Val^5, Gly^8]-AngII [DVG] | – | – | – | – | – | – | – | better efficacy for Gα12 activation than Gαq
